Results taken from patent publication US20240287138A1, “CYCLIC PEPTIDES FOR INHIBITING TNF RECEPTOR 1 ACTIVITY” (Merck Sharp & Dohme LLC, priority 2023, published 2024).
Numbered stars: 1 amine (or outer) side, 2 acyl side, 3 side chain; on linkers, the order of the positions; unused ones are H or OH. Bridge positions count the residues as written; N and C are the ends. Square brackets hold non-standard residues; d marks the D form. Peptide text beside a SMILES is read from it. Trp(βS-Me,7-OMe) = COc1cccc2c([C@H](C)[C@H](N)C(=O)O)c[nH]c12; Acbc(cis-1,3) = O=C([C@H]1C[C@@H](N[*:1])C1)[*:2]; Trp(7-Cl) = N[C@@H](Cc1c[nH]c2c(Cl)cccc12)C(=O)O; Ala(pyrimidin-5-yl) = N[C@@H](Cc1cncnc1)C(=O)O; Phe(4-COOH) = N[C@@H](Cc1ccc(C(=O)O)cc1)C(=O)O; Trp(7-aza) = N[C@@H](Cc1c[nH]c2ncccc12)C(=O)O; X41 = O=C([C@@H]1C[C@H](O)CCN1[*:1])[*:2]; Pip(4-aza) = O=C(O)[C@@H]1CNCCN1; 4Pal = N[C@@H](Cc1ccncc1)C(=O)O; NMeE = CN[C@@H](CCC(=O)O)C(=O)O; d(αMeP) = C[C@]1(C(=O)O)CCCN1; αMeS = C[C@](N)(CO)C(=O)O; Nle = CCCC[C@H](N)C(=O)O; Sar = CNCC(=O)O

Target: T1, TNFα-induced NF-κB signal transduction pathway (TNFR1 signaling) in THP-1 cells (Homo sapiens, UniProt P19438)
T1 sequence (P19438 30-455): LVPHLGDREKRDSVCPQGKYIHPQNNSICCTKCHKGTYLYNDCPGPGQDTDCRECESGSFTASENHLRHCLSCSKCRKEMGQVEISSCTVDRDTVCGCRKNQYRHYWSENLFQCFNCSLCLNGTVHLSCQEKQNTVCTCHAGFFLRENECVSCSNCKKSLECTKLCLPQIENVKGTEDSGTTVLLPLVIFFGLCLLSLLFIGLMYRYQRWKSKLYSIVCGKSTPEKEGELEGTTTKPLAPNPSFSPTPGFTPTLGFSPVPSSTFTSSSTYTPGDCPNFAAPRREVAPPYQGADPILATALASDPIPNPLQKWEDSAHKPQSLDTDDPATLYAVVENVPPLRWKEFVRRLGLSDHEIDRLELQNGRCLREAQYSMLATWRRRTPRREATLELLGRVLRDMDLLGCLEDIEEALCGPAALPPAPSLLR
Assay: THP-1 Lucia NF-κB reporter cell assay, inhibition of TNFα-induced NF-κB signaling
Type: cell-based
Conditions: THP-1 NF-κB Lucia reporter cells, 10 ng/mL TNFα, 16-18 h, secreted luciferase; read-out: THP-1 IC50
Method: C. Procedure for THP-1 Lucia NF-κB cells
The inhibition of TNFα-induced NF-κB signal transduction pathways was evaluated in THP-1 cells. THP-1 cells harboring NF-κB-inducible Lucia™ reporter gene (InvivoGen, cat. #thp1-nfkb) designed for monitoring NF-κB signal transduction pathway was employed to assess the inhibitory effect macrocyclic peptides on TNFR1 signaling. The cells were cultured in media containing RPMI 1640, 2 mM L-glutamine, 25 mM HEPES, 10% heat-inactivated fetal bovine serum with appropriate selection antibiotics. Assays were performed in media that was devoid of selection antibiotics. For profiling, 125 nL of peptides in DMSO (10 mM) were dispensed into Falcon® 384-well Optilux white/clear flat bottom TC-treated microtest microplate (Corning, cat. #353963) using Echo® 555. […] A suspension of 1 million cells/mL was dispensed at 20 μL/well in a 384-well plate to a density of 20,000 cells/well and pre-incubated with peptides at 37° C. for 1 h. Subsequently, 5 μL of TNF containing media (recombinant human TNFα; R&D Systems USA, cat. #210-TA-005/CF) or TNF-free media (for controls) was added to the wells. The final concentration of TNFα in the assay in 10 ng/mL. After o.n. incubation at 37° C. (16-18 h), 5 μL of supernatant was aspirated and transferred to a 384-well microplate (PerkinElmer, cat. #6007680) for measurement of secreted luciferase activity with 25 μL of QUANTI-Luc™ luminescence assay reagent (InvivoGen, cat. #rep-qlc1) in each well. The luminescence was measured in EnVision® Multimode Plate Reader (PerkinElmer). Dose response curves were analyzed using a 4-parameter logistic model to calculate IC50 values, reported in Table 2, using TIBCO® Spotfire® software employing appropriate Minimum and Maximum controls.

| Compound | IC50 [nM] |
| --- | --- |
| CCCC[C@@H]1NC(=O)CSC[C@@H](C(N)=O)NC(=O)[C@H]([C@@H](C)c2c[nH]c3c(OC)cccc23)NC(=O)CN(C)C(=O)[C@H](Cc2ccc(O)cc2)NC(=O)[C@H](Cc2ccc(C(=O)O)cc2)NC(=O)[C@](C)(CO)NC(=O)[C@H](Cc2c[nH]c3c(Cl)cccc23)NC(=O)[C@H](Cc2ccncc2)NC(=O)[C@H](CC(N)=O)NC(=O)[C@H](CCC(=O)O)N(C)C(=O)[C@H](Cc2c[nH]c3ncccc23)NC(=O)[C@@H]2CNCCN2C(=O)[C@H](Cc2cncnc2)NC1=O [SEQ ID NO. 65] ({CH2CO}-[Nle][Ala(pyrimidin-5-yl)][Pip(4-aza)][Trp(7-aza)][NMeE]N[4Pal][Trp(7-Cl)][αMeS][Phe(4-COOH)]Y[Sar][Trp(βS-Me,7-OMe)]C-NH2; thioether N-14) | 4 |
| CCCC[C@@H]1NC(=O)[C@H]2C[C@H](C2)NC(=O)[C@H]([C@@H](C)c2c[nH]c3c(OC)cccc23)NC(=O)CN(C)C(=O)[C@H](Cc2ccc(O)cc2)NC(=O)[C@H](Cc2ccc(C(=O)O)cc2)NC(=O)[C@](C)(CO)NC(=O)[C@H](Cc2c[nH]c3c(Cl)cccc23)NC(=O)[C@H](Cc2ccncc2)NC(=O)[C@H](CC(N)=O)NC(=O)[C@H](CCC(=O)O)N(C)C(=O)[C@H](Cc2c[nH]c3ccccc23)NC(=O)[C@@H]2CNCCN2C(=O)[C@H](Cc2ccncc2)NC1=O [SEQ ID NO. 69] (cyclo([4Pal][Trp(7-Cl)][αMeS][Phe(4-COOH)]Y[Sar][Trp(βS-Me,7-OMe)][Acbc(cis-1,3)][Nle][4Pal][Pip(4-aza)]W[NMeE]N)) | 1.6 |
| CCCC[C@@H]1NC(=O)CSC[C@@H](C(N)=O)NC(=O)[C@H]([C@@H](C)c2c[nH]c3c(OC)cccc23)NC(=O)CN(C)C(=O)[C@H](Cc2ccc(O)cc2)NC(=O)[C@H](Cc2ccc(C(=O)O)cc2)NC(=O)[C@](C)(CO)NC(=O)[C@H](Cc2c[nH]c3c(Cl)cccc23)NC(=O)[C@H](Cc2ccncc2)NC(=O)[C@H](CC(N)=O)NC(=O)[C@H](CCC(=O)O)N(C)C(=O)[C@H](Cc2c[nH]c3ccccc23)NC(=O)[C@@H]2C[C@H](O)CCN2C(=O)[C@H](Cc2ccncc2)NC1=O [SEQ ID NO. 71] ({CH2CO}-[Nle][4Pal][X41]W[NMeE]N[4Pal][Trp(7-Cl)][αMeS][Phe(4-COOH)]Y[Sar][Trp(βS-Me,7-OMe)]C-NH2; thioether N-14) | 2.8 |
| CCCC[C@@H]1NC(=O)CSC[C@@H](C(N)=O)NC(=O)[C@H]([C@@H](C)c2c[nH]c3c(OC)cccc23)NC(=O)CN(C)C(=O)[C@H](Cc2ccc(O)cc2)NC(=O)[C@H](Cc2ccc(C(=O)O)cc2)NC(=O)[C@](C)(CO)NC(=O)[C@H](Cc2c[nH]c3c(Cl)cccc23)NC(=O)[C@H](Cc2ccncc2)NC(=O)[C@H](CCC(=O)N(C)C)NC(=O)[C@H](CCC(=O)O)N(C)C(=O)[C@H](Cc2c[nH]c3ccccc23)NC(=O)[C@@H]2CNCCN2C(=O)[C@H](Cc2ccncc2)NC1=O [SEQ ID NO. 75] ({CH2CO}-[Nle][4Pal][Pip(4-aza)]W[NMeE]E(NMe2)[4Pal][Trp(7-Cl)][αMeS][Phe(4-COOH)]Y[Sar][Trp(βS-Me,7-OMe)]C-NH2; thioether N-14) | 6.1 |
| CCCC[C@@H]1NC(=O)CSC[C@@H](C(N)=O)NC(=O)[C@H]([C@@H](C)c2c[nH]c3c(OC)cccc23)NC(=O)CN(C)C(=O)[C@H](Cc2ccc(O)cc2)NC(=O)[C@H](Cc2ccc(C(=O)O)cc2)NC(=O)[C@](C)(CO)NC(=O)[C@H](Cc2c[nH]c3c(Cl)cccc23)NC(=O)[C@H](Cc2ccncc2)NC(=O)[C@H](CC(N)=O)NC(=O)[C@@]2(C)CCCN2C(=O)[C@H](Cc2c[nH]c3ccccc23)NC(=O)[C@@H]2CNCCN2C(=O)[C@H](Cc2ccncc2)NC1=O [SEQ ID NO. 76] ({CH2CO}-[Nle][4Pal][Pip(4-aza)]W[d(αMeP)]N[4Pal][Trp(7-Cl)][αMeS][Phe(4-COOH)]Y[Sar][Trp(βS-Me,7-OMe)]C-NH2; thioether N-14) | 4.7 |
